Experimental findings from US20050124607A1, “5-Substituted quinazolinone compounds useful as alpha 1A/B adrenergic receptor antagonists” (priority 2003, published 2005) are described below.

The melting point is the temperature of the solid-liquid transition.

`COc1cc2c(cc1OC)CN(c1nc(=O)c3c(Oc4ccccc4)c(OC)c(OC)cc3[nH]1)CC2` [Example 113, 2-(6,7-Dimethoxy-3,4-di-hydro-1H-isoquinolin-2-yl)-6,7-di-methoxy-5-phe-noxy-1H-quinazolin-4-one] had a melting point of 238.7 to 241.9 °C. Compound `COc1cc2[nH]c(N3Cc4ccc(Cl)cc4C3)nc(=O)c2c(OC)c1OC.Cl` registered a melting point of 289 to 291 °C. `COc1cc2c(cc1OC)CN(c1nc(=O)c3c(F)c(OC)c(OC)cc3[nH]1)CC2` [Example 133, 2-(6,7-Dimethoxy-3,4-di-hydro-1H-isoquino-lin-2-yl)-5-fluoro-6,7-di-methoxy-1H-quina-zolin-4-one] displayed a melting point of 260.8 to 269 °C. In the case of `COc1cc2[nH]c(N3CCc4c(cccc4/N=C4\CCCN4C)C3)nc(=O)c2c(C(C)C)c1OC` [Example 9, 5-Isopropyl-6,7-di-methoxy-2-{5-[1-meth-yl-pyrolidin-(2E)-ylidene-amino]-3,4-di-hydro-1H-iso-quinolin-2-yl}-1H-quina-zolin-4-one], the melting point was in the range of 196 to 200 °C. Under `COc1cc2[nH]c(N3CCN(c4cc(C)ccn4)CC3)nc(=O)c2c(OC)c1OC` [Example 25, 5,6,7-Trimethoxy-2-[4-(4-meth-yl-pyridin-2-yl)-pipe-razin-1-yl]-1H-quina-zolin-4-one] stands 235.3 to 235.5 °C. The same measure for `COC[C@H]1CCCN1CCC1CCN(c2nc(=O)c3c(OC)c(OC)c(OC)cc3[nH]2)CC1` [Example 70, 5,6,7-Trimeth-oxy-2-{4-[2-((R)-2-meth-oxymethyl-pyr-rolidin-1-yl)-ethyl]-pipe-ridin-1-yl}-1H-quina-zolin-4-one]: 65 to 79.1 °C.

`COc1cc2[nH]c(N3CCN(c4cccc[n+]4[O-])CC3)nc(=O)c2c(OC)c1OC` [Example 26, 5,6,7-Trimethoxy-2-[4-(1-oxy-py-ridin-2-yl)-pipe-razin-1-yl]-1H-quina-zolin-4-one] displayed a melting point of 142.8 to 147.2 °C. The same measure for `COc1cc2[nH]c(N3CCc4c(cccc4N=C4N(C)CCN4C)C3)nc(=O)c2c(OC)c1OC`: 215 to 217.5 °C.

The compound `COc1cc2[nH]c(N3CCN(c4cccc(C)n4)CC3)nc(=O)c2c(OC)c1OC` [Example 24, 5,6,7-Trimethoxy-2-[4-(6-meth-yl-pyridin-2-yl)-pipe-razin-1-yl]-1H-quina-zolin-4-one] gave a melting point of 231.1 to 232.2 °C.

As for `COc1cc2c(cc1OC)CN(c1nc(=O)c3c(OCCOCc4ccccc4)c(OC)c(OC)cc3[nH]1)CC2` [Example 112, 5-(2-Benzyloxy-ethoxy)-2-(6,7-di-methoxy-3,4-di-hydro-1H-isoquinolin-2-yl)-6,7-di-methoxy-1H-quinazolin-4-one], the melting point lay within 197 to 201.9 °C.

As for `COCCOc1c(OC)c(OC)cc2[nH]c(N3CCc4cc(OC)c(OC)cc4C3)nc(=O)c12` [Example 105, 2-(6,7-Dimethoxy-3,4-di-hydro-1H-isoquinolin-2-yl)-6,7-di-methoxy-5-(2-meth-oxy-ethoxy)-1H-quina-zolin-4-one], the melting point is 202.4 to 204.4 °C. The compound `COc1cc2[nH]c(N3CCN(C4=NCCN4c4cccc(F)c4)CC3)nc(=O)c2c(C)c1OC` returned a melting point of 257.9 to 260 °C.

The compound `COc1cc2[nH]c(N3CCC(OCc4ccccc4S(=O)(=O)N(C)C)CC3)nc(=O)c2c(C)c1OC` [Example 61, 2-[1-(6,7-Dimethoxy-5-meth-yl-4-oxo-1,4-di-hydro-quinazolin-2-yl)-pipe-ridin-4-yl-oxymethyl]-N,N-dimethyl-benzene-sulfonamide] returned a melting point of 217.9 to 219.8 °C.

In the case of `COc1cc2[nH]c(N3CCC(OCc4cccc(N(S(C)(=O)=O)S(C)(=O)=O)c4)CC3)nc(=O)c2c(OC)c1OC` [Example 80, N-Methane-sulfonyl-N-{3-[1-(5,6,7-tri-methoxy-4-oxo-1,4-di-hydro-quina-zolin-2-yl)-pipe-ridin-4-yloxy-methyl]-phenyl}-methane-sulfonamide], the melting point is 100.7 to 160.4 °C.
